The values that follow are results of earlier work, collected in patent US20210069377A1, “TISSUE SCAFFOLD” (priority 2018, published 2021).

The conditions of the series: at 20° C. and 1 atm.

As to `O=C(CO)[C@@H](O)[C@H](O)[C@H](O)CO` [Fructose], the solubility result is “about 375 g/100 g water”.
